Test results: patent publication US5336769A, “Xanthine derivatives” (Kyowa Hakko Kogyo Co., Ltd., priority 1992, dated 1994)

Legend:
[1] = test system: dd strain male mice; experiment: Acute Toxicity Test, minimum lethal dose (MLD); assay type: in vivo; details: oral, mortality 7 days after administration
Excerpt: Compounds 1 and 5 were orally administered to dd strain male mice (body weight: 20±1 g, 3 mice/group). The mortality was observed 7 days after the administration to determine the minimum lethal dose (MLD).

[2] = test system: scopolamine-induced amnesia models; experiment: Anti-dementia effect in scopolamine-induced amnesia models, step-through type passive avoidance (recall trial); assay type: in vivo, Male Wistar rats; details: oral, scopolamine 1 mg/kg i.p., 24 h after acquisition trial
Description: The effect of Compound (I) on dementia was determined by scopolamine-induced amnesia models (Basic, Clinical, and Therapeutic Aspects of Alzheimer's and Parkinson's Diseases: Vol. 2; T. Nagatsu, et al. edt; pp449; Plenum Press New York; 1990).
[…] The test was performed with a step-through type passive avoidance apparatus (the bright and dark box).
The bright and dark box was made up of a bright compartment (25×25×25 cm) lighted by 4W white fluorescent light and a dark compartment (25×25×25 cm). […] In order to give a foot shock, the electric current (2 mA: 2 sec) may be passed through the grid floor of the dark compartment.
The compound to be tested was suspended in 0.3% aqueous solution of carboxymethyl cellulose (CMC) and the suspension was orally administered 60 minutes before the acquisition trial. Only 0.3% CMC was given to the control group.
Amnesia-inducing treatment was carried out by intraperitoneally administering 1 mg/kg of scopolamine 30 minutes before the following acquisition trial.
The training for acquisition of learning (acquisition trial) was carried out. The rat was introduced into the bright compartment, and after 5 to 10 seconds, the guillotine door was opened. The rat in the bright compartment rapidly moved into the dark compartment. As soon as the whole body of the rat entered the dark compartment, the guillotine door was closed and an electric current of 2 mA was passed through the grid floor for two seconds (foot shock). Immediately after the foot shock, the rat was taken out of the dark compartment.
The test trial for observing the retention and recall of the memory (recall trial) was carried out as follows. Twenty-four hours after the acquisition trial, the rat was placed in the bright compartment and the guillotine door was opened. The length of time before the rat entered the dark compartment (latency) was measured. The latency was measured up to 600 seconds and the latency longer than 600 seconds was recorded as 600 seconds.
In the experiment, the amnesia control group had undergone the amnesia-inducing treatment and the normal control group had not undergone the amnesia-inducing treatment.
The anti-dementia effect was evaluated by Mann Whitney U-test to determine whether there was a significant difference in latency between the test compound treated group and the amnesia control group.

Compound | minimum lethal dose (MLD) [1] [mg/kg] | Recall trial mean reaction latency ([2]; 0.02 mg/Kg, 17 animals) [s] | Recall trial mean reaction latency ([2]; 0.08 mg/Kg, 18 animals) [s] | Recall trial mean reaction latency ([2]; 0.31 mg/Kg, 18 animals) [s] | Recall trial mean reaction latency ([2]; 1.25 mg/Kg, 17 animals) [s] | Recall trial mean reaction latency ([2]; 5.0 mg/Kg, 18 animals) [s] | Recall trial mean reaction latency ([2]; 20.0 mg/Kg, 17 animals) [s]
CCCn1c(=O)c2nc(C3CCCC3)[nH]c2n(CCc2ccc(NC(C)=O)cc2)c1=O [Compound 1, 3-(4-acetylaminophenethyl)-8-cyclopentyl 1-propylxanthine] | > 300 | 137.3 ± 44.5 | 174.8 ± 56.1 | 130.4 ± 38.5 | 170.3 ± 50.4 | 187.2 ± 50.2 | 116.2 ± 43.4
CCCn1c(=O)c2[nH]c(C3CCCC3)nc2n(CCc2ccc(NC(=O)C3CCCC3)cc2)c1=O [Compound 5, 3-[4-(cyclopentanecarbonylamino)-phenethyl]-8-cyclopentyl-1-propylxanthine] | > 300 | – | – | – | – | – | –
